Target: T1, CFTR (Homo sapiens, UniProt P13569, DEL508-508)
T1 construct: Primary CF airway epithelial cells were obtained from the UNC Cystic Fibrosis Tissue Procurement and Cell Culture Core; host or cells: primary CF airway epithelial cells
Assay: Equivalent current assay in Primary CF airway epithelial cells (NAUC)
Type: cell-based
Details: 24 h, normalized to VX809 (3 μM) positive control; for Nauc @ 3 μM: 3 μM test compound; for Nauc @ 10 μM: 10 μM test compound
Outline: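 NAUC is the area under the curve from forskolin (10 μM) plus VX770 (1 μM) addition to CFTR-172 (20 μM) block, after benzamil (5 μM). It is corrected for vehicle and scaled to 3 μM VX809 as 1.0 and DMSO as 0.0. Cells were exposed for 24 h to compounds with VX809; medians of ≥4 replicates were fitted sigmoidally.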

T1 sequence (P13569 with tags, fused parts or gaps DEL508-508): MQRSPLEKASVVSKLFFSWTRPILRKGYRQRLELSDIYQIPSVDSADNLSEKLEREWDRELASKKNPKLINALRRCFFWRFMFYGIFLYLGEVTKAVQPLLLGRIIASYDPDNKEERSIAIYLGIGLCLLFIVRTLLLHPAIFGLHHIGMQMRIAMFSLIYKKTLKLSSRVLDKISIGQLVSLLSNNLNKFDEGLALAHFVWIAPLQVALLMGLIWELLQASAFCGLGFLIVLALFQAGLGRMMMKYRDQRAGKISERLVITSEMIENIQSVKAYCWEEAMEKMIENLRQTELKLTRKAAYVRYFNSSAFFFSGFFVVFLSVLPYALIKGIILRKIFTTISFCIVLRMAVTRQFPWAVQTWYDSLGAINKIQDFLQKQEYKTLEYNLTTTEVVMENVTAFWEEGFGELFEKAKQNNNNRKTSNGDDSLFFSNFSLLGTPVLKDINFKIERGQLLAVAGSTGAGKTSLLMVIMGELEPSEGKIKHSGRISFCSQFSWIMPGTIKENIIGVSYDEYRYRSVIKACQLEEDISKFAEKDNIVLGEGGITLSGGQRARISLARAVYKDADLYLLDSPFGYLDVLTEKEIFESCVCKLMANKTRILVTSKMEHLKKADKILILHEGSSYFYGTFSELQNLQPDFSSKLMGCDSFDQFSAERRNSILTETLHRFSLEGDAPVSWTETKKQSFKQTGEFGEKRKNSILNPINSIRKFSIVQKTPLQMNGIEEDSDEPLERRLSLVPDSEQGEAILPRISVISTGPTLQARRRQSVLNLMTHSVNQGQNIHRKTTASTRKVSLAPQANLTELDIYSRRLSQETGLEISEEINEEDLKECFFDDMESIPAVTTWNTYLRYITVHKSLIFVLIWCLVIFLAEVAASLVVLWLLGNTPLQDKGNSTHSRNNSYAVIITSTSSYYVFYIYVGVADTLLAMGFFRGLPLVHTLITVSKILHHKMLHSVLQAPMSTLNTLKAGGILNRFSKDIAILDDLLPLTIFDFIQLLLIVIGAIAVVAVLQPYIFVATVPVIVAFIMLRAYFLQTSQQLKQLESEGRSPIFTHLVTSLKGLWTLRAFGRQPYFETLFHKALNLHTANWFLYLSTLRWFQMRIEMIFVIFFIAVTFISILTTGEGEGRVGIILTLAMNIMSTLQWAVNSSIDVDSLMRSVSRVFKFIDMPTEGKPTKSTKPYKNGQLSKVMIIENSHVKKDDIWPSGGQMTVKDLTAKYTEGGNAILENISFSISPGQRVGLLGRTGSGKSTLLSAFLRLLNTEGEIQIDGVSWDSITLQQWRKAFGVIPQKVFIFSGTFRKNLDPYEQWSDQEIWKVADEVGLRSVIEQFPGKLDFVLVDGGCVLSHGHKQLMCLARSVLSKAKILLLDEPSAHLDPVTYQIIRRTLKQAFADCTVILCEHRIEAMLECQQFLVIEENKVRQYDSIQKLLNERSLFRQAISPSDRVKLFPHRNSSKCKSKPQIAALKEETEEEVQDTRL

Row | Compound | Nauc @ 3 μM | Nauc @ 10 μM
1 | C[C@]1(O)CC2C3C(=O)N(c4cc(Cl)c(OC(F)F)c(Cl)c4)C(=O)C3C3(C(=O)Nc4c(Cl)cc(Cl)cc43)N2C1 (some centres unmarked) [Example 226] | ++ (NAUC “++” refers to an observed NAUC 170-140% of positive control) | ++ (NAUC “++” refers to an observed NAUC 170-140% of positive control)
2 | CC1(C)CC2C3C(=O)N(c4cc(Cl)cc(Cl)c4)C(=O)C3C3(C(=O)Nc4c(Cl)cc(Cl)cc43)N2C1 (single isomer, unassigned) [Example 120] | +++ (NAUC “+++” refers to an observed NAUC >170% of positive control) | + (NAUC “+” refers to an observed NAUC <140% of positive control)
3 | COc1cc(Cl)cc(N2C(=O)C3C4C[C@H](F)CN4C4(C(=O)Nc5c(Cl)cc(Cl)cc54)C3C2=O)c1 (single isomer, unassigned) [Example 6, (7′S)-5,7-Dichloro-2′-(3-chloro-5-methoxyphenyl)-7′-fluoro-3a′,6′,7′,8′,8a′,8b′-hexahydro-1′H-spiro[indoline-3,4′-pyrrolo[3,4-a]pyrrolizine]-1′,2,3′(2′H)-trione] | +++ (NAUC “+++” refers to an observed NAUC >170% of positive control) | +++ (NAUC “+++” refers to an observed NAUC >170% of positive control)
4 | [2H]C12C(=O)N(c3cc(Cl)cc(Cl)c3)C(=O)C1([2H])C1(C(=O)Nc3c(Cl)cc(Cl)cc31)N1C[C@@H](O)CC12 (single isomer, unassigned) [Example 84] | ++ (NAUC “++” refers to an observed NAUC 170-140% of positive control) | ++ (NAUC “++” refers to an observed NAUC 170-140% of positive control)
5 | O=C1C2C(Cc3c[nH]c4ccccc34)NC3(C(=O)Nc4c(Cl)cc(Cl)cc43)C2C(=O)N1c1cc(Cl)cc(Cl)c1 (centres unmarked) [Example 155] | ++ (NAUC “++” refers to an observed NAUC 170-140% of positive control) | + (NAUC “+” refers to an observed NAUC <140% of positive control)
6 | COc1cc(Cl)cc(N2C(=O)C3C4CCCN4C4(C(=O)Nc5c(Cl)cc(Cl)cc54)C3C2=O)c1 (single isomer, unassigned) [Example 105] | ++ (NAUC “++” refers to an observed NAUC 170-140% of positive control) | ++ (NAUC “++” refers to an observed NAUC 170-140% of positive control)
7 | O=C1C2C3CCCN3C3(C(=O)Nc4c(Cl)cc(Cl)cc43)C2C(=O)N1c1cc(C(F)(F)F)cc(C(F)(F)F)c1 (centres unmarked) [Example 16] | +++ (NAUC “+++” refers to an observed NAUC >170% of positive control) | +++ (NAUC “+++” refers to an observed NAUC >170% of positive control)
8 | Cc1ccc2c(c1)C1(C(=O)N2)C2C(=O)N(c3cc(Cl)cc(Cl)c3)C(=O)C2C2CCCN21 (centres unmarked) [Example 47] | ++ (NAUC “++” refers to an observed NAUC 170-140% of positive control) | ++ (NAUC “++” refers to an observed NAUC 170-140% of positive control)
9 | N#Cc1cc(Cl)cc(N2C(=O)C3C4CCCN4C4(C(=O)Nc5c(Cl)cc(Cl)cc54)C3C2=O)c1 (centres unmarked) [Example 31] | + (NAUC “+” refers to an observed NAUC <140% of positive control) | +++ (NAUC “+++” refers to an observed NAUC >170% of positive control)
10 | CC1(C)CC2C3C(=O)N(c4cc(Cl)cc(Cl)c4)C(=O)C3C3(C(=O)Nc4c(Cl)cc(Cl)cc43)N2C1 (centres unmarked) [Example 103] | ++ (NAUC “++” refers to an observed NAUC 170-140% of positive control) | +++ (NAUC “+++” refers to an observed NAUC >170% of positive control)
11 | O=C1C2C3C[C@H](O)CN3C3(C(=O)Nc4c(Cl)cc(Cl)cc43)C2C(=O)N1c1cc(Br)cc(Br)c1 (single isomer, unassigned) [Example 56] | ++ (NAUC “++” refers to an observed NAUC 170-140% of positive control) | +++ (NAUC “+++” refers to an observed NAUC >170% of positive control)
12 | Cc1ccccc1CC1NC2(C(=O)Nc3c(Cl)cc(Cl)cc32)C2C(=O)N(c3cc(Cl)cc(Cl)c3)C(=O)C12 (centres unmarked) [Example 199] | +++ (NAUC “+++” refers to an observed NAUC >170% of positive control) | ++ (NAUC “++” refers to an observed NAUC 170-140% of positive control)
13 | O=C1C2C3CC(=C(F)F)CN3C3(C(=O)Nc4c(Cl)cc(Cl)cc43)C2C(=O)N1c1cc(Cl)cc(Cl)n1 (centres unmarked) [Example 122] | +++ (NAUC “+++” refers to an observed NAUC >170% of positive control) | + (NAUC “+” refers to an observed NAUC <140% of positive control)
14 | COc1cccc(N2C(=O)C3C4CCCN4C4(C(=O)Nc5c(Cl)cc(Cl)cc54)C3C2=O)c1 (centres unmarked) [Example 97] | + (NAUC “+” refers to an observed NAUC <140% of positive control) | ++ (NAUC “++” refers to an observed NAUC 170-140% of positive control)
15 | COc1c(Cl)cc(N2C(=O)C3C4C[C@H](C(F)(F)F)CN4C4(C(=O)Nc5c(Cl)cc(Cl)cc54)C3C2=O)cc1Cl (some centres unmarked) [Example 245] | +++ (NAUC “+++” refers to an observed NAUC >170% of positive control) | +++ (NAUC “+++” refers to an observed NAUC >170% of positive control)
16 | O=C1C2C3CCCN3C3(C(=O)Nc4c(Cl)cc(Cl)cc43)C2C(=O)N1c1cc(Cl)cc(Br)c1 (centres unmarked) [Example 35] | + (NAUC “+” refers to an observed NAUC <140% of positive control) | +++ (NAUC “+++” refers to an observed NAUC >170% of positive control)
17 | Nc1ccc(CC2NC3(C(=O)Nc4c(Cl)cc(Cl)cc43)C3C(=O)N(c4cc(Cl)cc(Cl)c4)C(=O)C23)cc1 (centres unmarked) [Example 207] | ++ (NAUC “++” refers to an observed NAUC 170-140% of positive control) | + (NAUC “+” refers to an observed NAUC <140% of positive control)
18 | O=C1C2C3CCCN3C3(C(=O)Nc4c(Cl)cc(Cl)cc43)C2C(=O)N1c1cc(Br)cc(Br)c1 (centres unmarked) [Example 27] | ++ (NAUC “++” refers to an observed NAUC 170-140% of positive control) | ++ (NAUC “++” refers to an observed NAUC 170-140% of positive control)
19 | [2H]C12C(=O)N(c3cc(Cl)cc(OC)c3)C(=O)C1([2H])C1(C(=O)Nc3c(Cl)cc(Cl)cc31)N1C[C@@H](Cl)CC12 (some centres unmarked) [Example 146] | +++ (NAUC “+++” refers to an observed NAUC >170% of positive control) | +++ (NAUC “+++” refers to an observed NAUC >170% of positive control)
20 | O=C1C2C3C[C@H](Cl)CN3C3(C(=O)Nc4c(Cl)cc(Cl)cc43)C2C(=O)N1c1cc(Cl)cc(Cl)n1 (some centres unmarked) [Example 65] | ++ (NAUC “++” refers to an observed NAUC 170-140% of positive control) | +++ (NAUC “+++” refers to an observed NAUC >170% of positive control)
21 | CC1(C)CC2C3C(=O)N(c4cc(Cl)c(OC(F)F)c(Cl)c4)C(=O)C3C3(C(=O)Nc4c(Cl)cc(Cl)cc43)N2C1 (centres unmarked) [Example 225] | +++ (NAUC “+++” refers to an observed NAUC >170% of positive control) | +++ (NAUC “+++” refers to an observed NAUC >170% of positive control)
22 | O=C1C2C3CCCN3C3(C(=O)Nc4c(Cl)cc(Cl)cc43)C2C(=O)N1c1cc(Cl)cc(Cl)n1 (single isomer, unassigned) [Example 67] | +++ (NAUC “+++” refers to an observed NAUC >170% of positive control) | +++ (NAUC “+++” refers to an observed NAUC >170% of positive control)
23 | CC(O)C1NC2(C(=O)Nc3c(Cl)cc(Cl)cc32)C2C(=O)N(c3cc(Cl)cc(Cl)c3)C(=O)C12 (centres unmarked) [Example 166] | ++ (NAUC “++” refers to an observed NAUC 170-140% of positive control) | ++ (NAUC “++” refers to an observed NAUC 170-140% of positive control)
24 | O=C1C2C3C[C@H](Cl)CN3C3(C(=O)Nc4c(Cl)cc(Cl)cc43)C2C(=O)N1c1cc(Cl)cc(Cl)n1 (single isomer, unassigned) [Example 108] | +++ (NAUC “+++” refers to an observed NAUC >170% of positive control) | ++ (NAUC “++” refers to an observed NAUC 170-140% of positive control)
25 | C[C@]1(F)CC2C3C(=O)N(c4cc(Cl)cc(Cl)c4)C(=O)C3C3(C(=O)Nc4c(Cl)cc(Cl)cc43)N2C1 (some centres unmarked) [Example 204] | + (NAUC “+” refers to an observed NAUC <140% of positive control) | +++ (NAUC “+++” refers to an observed NAUC >170% of positive control)
26 | O=C1[C@H]2[C@H]3C[C@H](O)CN3[C@]3(C(=O)Nc4c(Cl)cc(Cl)cc43)[C@H]2C(=O)N1c1cc(Cl)cc(Cl)c1 (single isomer, unassigned) [Example 2] | +++ (NAUC “+++” refers to an observed NAUC >170% of positive control) | +++ (NAUC “+++” refers to an observed NAUC >170% of positive control)
27 | COc1c(Cl)cc(N2C(=O)C3C4CC(C)(C)CN4C4(C(=O)Nc5c(Cl)cc(Cl)cc54)C3C2=O)cc1Cl (single isomer, unassigned) [Example 140] | +++ (NAUC “+++” refers to an observed NAUC >170% of positive control) | +++ (NAUC “+++” refers to an observed NAUC >170% of positive control)
28 | O=C1C2C3C[C@H](O)CN3C3(C(=O)Nc4c(Cl)cc(Cl)cc43)C2C(=O)N1c1cc(Cl)cc(Br)c1 (some centres unmarked) [Example 41] | ++ (NAUC “++” refers to an observed NAUC 170-140% of positive control) | +++ (NAUC “+++” refers to an observed NAUC >170% of positive control)

— patent US10072017B2, “Compounds and methods for the treatment of cystic fibrosis” (Flatley Discovery Lab, LLC, priority 2015, dated 2018)
